Legend:
Assay type in all cases: cell-based, Saccharomyces cerevisiae
[1] = tested on: PPIs identified as affected by the SH3 domain deletions; assay: Liquid DHFR-PCA low-throughput validation of PPIs affected by SH3 deletion (Fig. S1D-E); settings: label = prey, liquid DHFR-PCA, prey _1 = lost, _2 = gained in screen
Protocol: Liquid DHFR-PCA low-throughput experiments were performed to validate the PPIs identified as affected by the SH3 domain deletions in the high-throughput solid DHFR-PCA screen (256 PPIs weaker or lost and 116 PPIs stronger or gained following domain deletions). Mating and the diploid selection were performed as described for the large-scale experiment, with the exception that the plates were in 384 formats. Following the second diploid selection, diploid cells were inoculated in a 96 v-shaped well plate using a robotically manipulated 96 pin tool in a synthetic complete medium with MSG at pH 6.0 with NAT and HPH. After 48 h of growth, optical density (OD) was read using a TECAN Infinite F200 Pro, and dilutions to 1 OD in sterile nanopure water were prepared. Cells were then diluted to 0.1 OD by combining 25 µl of cell suspension at OD = 1 and 225 µl of PCA selection media without agar in a 96-wells plate. Plates were incubated at 30 °C in a TECAN Infinite M Nano and OD was monitored each 15 min for 72 h.

Abp1 PPIs = assay: DHFR-PCA of Abp1 SH3-swapped baits (Fig. 2B-D, S2C, S2F); settings: Fig2B; bait ABP1, label = prey; Replicates 4
From the text: Having determined that multiple PPIs require SH3s, we asked whether the latter establish PPI specificity independently from their host proteins by swapping domains (Fig. 2A). Using the second round of genome editing, we individually replaced Abp1 SH3 with the 27 yeast SH3s and 3 human Abp1 orthologs’ SH3s (CTTN, HCLS1, and DBNL, Fig. 2B). The reintroduction of its own SH3 (Abp1SH3 in Abp1) reconstitutes almost perfectly Abp1’s interaction profile (Kendall’s τ = 0.93, Fig. 2B). […] No homologous SH3 domain fully re-establishes the normal Abp1 PPI profile (Fig. 2B and Supplementary Fig. 2C). However, we observe a significant correlation (cophenetic correlation = 0.20, p value = 0.005, Fig. 2C) between the similarity of PPI profiles (Fig. 2B) and the sequence similarity of the SH3s. […] Nonetheless, a subset of SH3-dependent PPIs is only observed with the endogenous domain. For instance, Hua2 and App1, both well-characterized partners of Abp1[14],[18],[19], are only detected when Abp1 contains its own SH3 (WT or swapped via editing). A given SH3 may therefore not be fully replaceable with other paralogous or orthologous domains. This pattern is confirmed by cellular growth phenotypic analyses (Supplementary Fig. 2D, E). PPIs, SH3 sequence similarity, and growth profiles under stress conditions are correlated (Supplementary Fig. 2D, E). This relationship is particularly clear when analyzing growth on media supplemented with hygromycin.
The stuffing of YSC84 SH3 rendered the strain sterile and was therefore not used for this study as the assays require crosses. For genes containing two SH3s (BZZ1 and BEM1), a combination of this first stuffer with a second one ([…]) coding for a highly similar linker ([…]) was used, which allowed targeting each SH3 position independently. The two N-terminal domains of SLA1, which are separated by six nucleotides, were stuffed by a single stuffer. Cells containing pCAS were selected via the G418 resistance cassette from the plasmid on YPD plates (YPD + NAT 100 μg/ml (DHFR F[1,2] selection) + G418 200 µg/mL (Bioshop Canada)). Colonies were randomly selected and grown in YPD media without G418 to allow plasmid loss. The correct insertion of the stuffer was validated by PCR and Sanger sequencing. The SH3-swapped, -shuffled, and -mutated strains were constructed following a second CRISPR–Cas9 editing step with the same procedures. The stuffer sequences were targeted by specific gRNAs (one gRNA per stuffer) and replaced by PCR amplified specific SH3 (with 40 bp homology arms) or libraries of mutated SH3 domains for Deep Mutational Scanning (DMS) with 78 bp flanking homology regions. Validation of the SH3 domain insertions was done as we previously described except for DMS libraries (see below).
The overall DHFR-PCA pipeline is based on Tarassov et al.[43] and the procedures have also been published as a visualized protocol. The screens were performed with robotically manipulated pin tools (BM5-SC1, S&P Robotics Inc.). First, the preys were cherry-picked from 96-well plates to omnitrays in a 384 format on YPD + HPH solid media. Plates were then combined into the 1536 format on YPD + HPH. The array was constituted of 575 preys previously shown to interact physically with at least one SH3-containing protein as reported in BioGRID V3.4.16 along with 40 negative controls. The prey array comprised a border of control strains of two rows and two columns corresponding to the PPI between LSM8-DHFR F[1,2] and CDC39-DHFR F[3]. This double border was used to remove border effects. Preys are present in duplicate at a randomized position in the 1536 array (except for YAL041W which is present four times per array). Baits were crossed with two prey plates, resulting in four independent bait–prey tests for each PPI. Baits were grown in liquid YPD + NAT and then transferred on solid YPD + NAT omnitrays. They were then replicated on YPD + NAT omnitrays in 1536 array format. […]

ABP1 = assay: DHFR-PCA on solid medium, bait ABP1 (Fig. 1B); settings: bait ABP1, label = prey; for medrep (log2 median colony size normalized to plate background, PCA score): 2-4 replicates; for Ratio (SH3-deleted/WT medrep): only significant differences showed, PPIs completely lost have a ratio of 0.1 and the gained PPIs 2.5
From the text: Supplement 41467_2021_21873_MOESM8_ESM.xlsx, sheet "Fig1B" | column: medsize; medrep; Ratio; Score

YAL005C_2
Ratio (Deletedscore / WTscore) ([1]; bait BOI1): 0.8346 | Ratio (Deletedscore / WTscore) ([1]; bait CYK3): 1.208 | Ratio (Deletedscore / WTscore) ([1]; bait HOF1): 1.323 | Ratio (Deletedscore / WTscore) ([1]; bait): 1.478

YBL017C
medrep (log2 median colony size normalized to plate background) (Abp1 PPIs): 1.647 | medsize (median colony size) (Abp1 PPIs): 447.5 | medrep (log2 median colony size normalized to plate background, PCA score) (ABP1): 2.711 | Ratio (SH3-deleted/WT medrep) (ABP1): 1.6455

YBL017C_2
Ratio (Deletedscore / WTscore) ([1]; bait ABP1): 1.35 | Ratio (Deletedscore / WTscore) ([1]; bait LSB3): 1.844

YBR109C_1
Ratio (Deletedscore / WTscore) ([1]; bait MYO5): 0.9988

YBR234C_1
Ratio (Deletedscore / WTscore) ([1]; bait BUD14): 0.744

YDL229W_1
Ratio (Deletedscore / WTscore) ([1]; bait CDC25): 0.6311

YDL229W_2
Ratio (Deletedscore / WTscore) ([1]; bait BOI1): 1.5

YDR170C
medrep (log2 median colony size normalized to plate background, PCA score) (ABP1): 2.657 | Ratio (SH3-deleted/WT medrep) (ABP1): 1.547

YDR170C_1
Ratio (Deletedscore / WTscore) ([1]; bait RVS167): 0.751

YDR170C_2
Ratio (Deletedscore / WTscore) ([1]; bait ABP1): 1.267 | Ratio (Deletedscore / WTscore) ([1]; bait LSB3): 1.852

YDR265W_2
Ratio (Deletedscore / WTscore) ([1]; bait BEM1-1): 1.494 | Ratio (Deletedscore / WTscore) ([1]; bait): 1.155

YER155C_1
Ratio (Deletedscore / WTscore) ([1]; bait BOI1): 0.8689 | Ratio (Deletedscore / WTscore) ([1]; bait BOI2): 0.775 | Ratio (Deletedscore / WTscore) ([1]; bait BUD14): 0.7098

YER166W_1
Ratio (Deletedscore / WTscore) ([1]; bait RVS167): 0.4913

YGL206C_1
Ratio (Deletedscore / WTscore) ([1]; bait BBC1): 0.7295 | Ratio (Deletedscore / WTscore) ([1]; bait BOI1): 1.003 | Ratio (Deletedscore / WTscore) ([1]; bait HOF1): 0.9141

YGL206C_2
Ratio (Deletedscore / WTscore) ([1]; bait BEM1-2): 1.078 | Ratio (Deletedscore / WTscore) ([1]; bait BZZ1-1): 0.8702 | Ratio (Deletedscore / WTscore) ([1]; bait BZZ1-2): 1.646

YIL062C_1
Ratio (Deletedscore / WTscore) ([1]; bait BZZ1-1): 0.7418

YIL062C_2
Ratio (Deletedscore / WTscore) ([1]; bait HSE1): 1.213

YKL013C_1
Ratio (Deletedscore / WTscore) ([1]; bait BZZ1-1): 0.9908 | Ratio (Deletedscore / WTscore) ([1]; bait BZZ1-2): 1.121 | Ratio (Deletedscore / WTscore) ([1]; bait MYO5): 0.8543

YLL040C_1
Ratio (Deletedscore / WTscore) ([1]; bait LSB3): 0.505

YLR370C_1
Ratio (Deletedscore / WTscore) ([1]; bait BZZ1-1): 0.6354

YOR181W_1
Ratio (Deletedscore / WTscore) ([1]; bait BBC1): 0.634 | Ratio (Deletedscore / WTscore) ([1]; bait LSB1): 0.5295 | Ratio (Deletedscore / WTscore) ([1]; bait LSB3): 0.6909 | Ratio (Deletedscore / WTscore) ([1]; bait MYO3): 0.5123 | Ratio (Deletedscore / WTscore) ([1]; bait MYO5): 0.7615 | Ratio (Deletedscore / WTscore) ([1]; bait PIN3): 0.5418

YPR154W (EYVEALYQFDPQQDGDLGLKPGDKVQLLEKLSPEWYKGSCNGRTGIFPANYVKPAF)
medrep (log2 median colony size normalized to plate background, PCA score) (ABP1): 1.556

YPR184W_2
Ratio (Deletedscore / WTscore) ([1]; bait LSB3): 1.832

Source: article PMC7954794, “Protein context shapes the specificity of SH3 domain-mediated interactions in vivo” (Nature Communications, 2021)
